Here are results for 15 compounds from patent US10189836B2, “Therapeutic compounds, compositions and methods of use thereof” (Genentech, Inc., priority 2015, dated 2019).

Experiment [1] deals with isolated recombinant JAK1 kinase domain (Homo sapiens (Human), UniProt P23458). Description: JAK1 enzyme assay (Caliper LabChip, Ki). The format is biochemical. The settings on record: isolated recombinant JAK1 kinase domain, 1.5 nM enzyme, ATP 25 μM.
The target of experiment [2] is isolated recombinant JAK2 kinase domain (Homo sapiens (Human), UniProt O60674). Description: JAK2 enzyme assay (Caliper LabChip, Ki). The format is biochemical. The settings on record: isolated recombinant JAK2 kinase domain, 0.2 nM enzyme, ATP 25 μM.
Sequence of isolated recombinant JAK2 kinase domain (O60674 849-1124): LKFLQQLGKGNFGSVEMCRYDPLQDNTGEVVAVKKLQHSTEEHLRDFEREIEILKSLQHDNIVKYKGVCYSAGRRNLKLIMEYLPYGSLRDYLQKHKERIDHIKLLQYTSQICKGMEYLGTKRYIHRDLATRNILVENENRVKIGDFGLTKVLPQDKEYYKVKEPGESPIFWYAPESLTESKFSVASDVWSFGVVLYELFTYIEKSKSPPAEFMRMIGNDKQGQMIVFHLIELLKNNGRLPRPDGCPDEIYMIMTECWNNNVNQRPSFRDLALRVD

The structures appear in SMILES notation.

Usually Ki stands for the dissociation constant of the complex between target and ligand, obtained from inhibition or displacement.

Sequence of isolated recombinant JAK1 kinase domain (P23458 875-1153): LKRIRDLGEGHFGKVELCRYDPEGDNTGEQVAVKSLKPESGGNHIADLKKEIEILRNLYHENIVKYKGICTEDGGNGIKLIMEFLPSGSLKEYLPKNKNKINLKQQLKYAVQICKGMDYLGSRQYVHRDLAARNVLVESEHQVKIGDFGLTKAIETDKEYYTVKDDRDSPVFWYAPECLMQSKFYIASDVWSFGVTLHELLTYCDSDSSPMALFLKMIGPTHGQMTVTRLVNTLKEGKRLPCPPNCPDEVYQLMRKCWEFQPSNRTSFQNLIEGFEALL

As for `CN1CCN(C(=O)Cn2cc(Nc3nc4c(N5CC6CCC(C5)N6C(=O)C5CC6CCC5O6)cccn4n3)cn2)CC1` (stereo not drawn) [Example 53, 1-(4-methylpiperazin-1-yl)-2-[4-[[8-[8-(7-oxabicyclo[2.2.1]heptane-3-carbonyl)-3,8-diazabicyclo[3.2.1]octan-3-yl]-[1,2,4]triazolo[1,5-a]pyridin-2-yl]amino]pyrazol-1-yl]ethanone], the values for the Ki in experiment [1] and in experiment [2] were 1.9 nM and 2.8 nM, respectively.
Consider `CN1CCN(C(=O)Cn2cc(Nc3nc4c(N5CC6CCC(C5)N6C(=O)COC(F)(F)F)cccn4n3)cn2)CC1` [Example 54, 1-(4-methylpiperazin-1-yl)-2-[4-[[8-[8-[2-(trifluoromethoxy)acetyl]-3,8-diazabicyclo[3.2.1]octan-3-yl]-[1,2,4]triazolo[1,5-a]pyridin-2-yl]amino]pyrazol-1-yl]ethanone], for which the results for the Ki in experiment [1] and in experiment [2] were 1.6 nM and 4.9 nM, respectively.
On the same counts, the results for `CN1CCN(C(=O)Cn2cc(Nc3nc4c(N5CC6CCC(C5)N6Cc5cccc(C#N)c5)cccn4n3)cn2)CC1` [Example 55, 3-[[3-[2-[[1-[2-(4-methylpiperazin-1-yl)-2-oxo-ethyl]pyrazol-4-yl]amino]-[1,2,4]triazolo[1,5-a]pyridin-8-yl]-3,8-diazabicyclo[3.2.1]octan-8-yl]methyl]benzonitrile] are 1.9 nM and 4 nM.
Take `CN1CCN(C(=O)Cn2cc(Nc3nc4c(N5CC6CCC(C5)N6Cc5ccc(C#N)cc5)cccn4n3)cn2)CC1` [Example 56, 4-[[3-[2-[[1-[2-(4-methylpiperazin-1-yl)-2-oxo-ethyl]pyrazol-4-yl]amino]-[1,2,4]triazolo[1,5-a]pyridin-8-yl]-3,8-diazabicyclo[3.2.1]octan-8-yl]methyl]benzonitrile]: the Ki in experiment [1] was found to be 1.4 nM; in experiment [2], 5.1 nM.
On the same counts, the results for `CN1CCN(C(=O)Cn2cc(Nc3nc4c(N5CC6CCC(C5)N6C(=O)C5CCC(F)(F)C5)cccn4n3)cn2)CC1` (stereo not drawn) [Example 58, 2-[4-[[8-[8-(3,3-difluorocyclopentanecarbonyl)-3,8-diazabicyclo[3.2.1]octan-3-yl]-[1,2,4]triazolo[1,5-a]pyridin-2-yl]amino]pyrazol-1-yl]-1-(4-methylpiperazin-1-yl)ethanone] are 1.6 nM and 2.5 nM.
Taken in the same sequence, the figures for `CCN1CCN(C(=O)Cn2cc(Nc3nc4c(N5CC6CCC(C5)N6C(=O)N5CC(C(F)(F)F)C5)cccn4n3)cn2)CC1` [Example 59, 1-(4-ethylpiperazin-1-yl)-2-[4-[[8-[8-[3-(trifluoromethyl)azetidine-1-carbonyl]-3,8-diazabicyclo[3.2.1]octan-3-yl]-[1,2,4]triazolo[1,5-a]pyridin-2-yl]amino]pyrazol-1-yl]ethanone] were 0.8 nM and 0.5 nM.
On the same counts, the results for `CN1CCN(C(=O)Cn2cc(Nc3nc4c(N5CC6CCC(C5)N6S(=O)(=O)CCC(F)(F)F)cccn4n3)cn2)CC1` [Example 60, 1-(4-methylpiperazin-1-yl)-2-[4-[[8-[8-(3,3,3-trifluoropropylsulfonyl)-3,8-diazabicyclo[3.2.1]octan-3-yl]-[1,2,4]triazolo[1,5-a]pyridin-2-yl]amino]pyrazol-1-yl]ethanone] are 0.7 nM and 1.5 nM.
For `CN1CCN(C(=O)Cn2cc(Nc3nc4c(N5CC6CCC(C5)N6S(=O)(=O)c5ccccc5)cccn4n3)cn2)CC1` [Example 61, 2-[4-[[8-[8-(benzenesulfonyl)-3,8-diazabicyclo[3.2.1]octan-3-yl]-[1,2,4]triazolo[1,5-a]pyridin-2-yl]amino]pyrazol-1-yl]-1-(4-methylpiperazin-1-yl)ethanone], the Ki in experiment [1] came out at 0.6 nM; in experiment [2], 1 nM.
On the same counts, the results for `CN(C1CCN(C(=O)Cn2cc(Nc3nc4c(N5CC6CCC(C5)N6C(=O)N5CC(C(F)(F)F)C5)cccn4n3)cn2)CC1)C1COC1` [Example 62, 1-[4-[methyl(oxetan-3-yl)amino]piperidin-1-yl]-2-(4-[[8-(8-[[3-(trifluoromethyl)azetidin-1-yl]carbonyl]-3,8-diazabicyclo[3.2.1]octan-3-yl)-[1,2,4]triazolo[1,5-a]pyridin-2-yl]amino]-1H-pyrazol-1-yl)ethan-1-one] are 0.7 nM and 0.5 nM.
Consider `CN1CCN(C(=O)Cn2cc(Nc3nc4c(N5CC6CCC(C5)N6Cc5ccccc5C#N)cccn4n3)cn2)CC1` [Example 63, 2-[[3-[2-[[1-[2-(4-methylpiperazin-1-yl)-2-oxo-ethyl]pyrazol-4-yl]amino]-[1,2,4]triazolo[1,5-a]pyridin-8-yl]-3,8-diazabicyclo[3.2.1]octan-8-yl]methyl]benzonitrile], for which the values for the Ki in experiment [1] and in experiment [2] were 1.8 nM and 2.4 nM, respectively.
With `CN1CCN(C(=O)Cn2cc(Nc3nc4c(N5CC6CCC(C5)N6C(=O)Cc5ccccc5F)cccn4n3)cn2)CC1` [Example 64, 2-(2-fluorophenyl)-1-[3-[2-[[1-[2-(4-methylpiperazin-1-yl)-2-oxo-ethyl]pyrazol-4-yl]amino]-[1,2,4]triazolo[1,5-a]pyridin-8-yl]-3,8-diazabicyclo[3.2.1]octan-8-yl]ethanone], the Ki in experiment [1] is 1.9 nM; in experiment [2], 7.2 nM.
Consider `CN1CCN(C(=O)Cn2cc(Nc3nc4c(N5CC6CCCC(C5)N6C(=O)[C@H]5C[C@@H](C(F)(F)F)C5)cccn4n3)cn2)CC1` [Example 65, 1-(4-methylpiperazin-1-yl)-2-[4-[[8-[9-[3-(trifluoromethyl)cyclobutanecarbonyl]-3,9-diazabicyclo[3.3.1]nonan-3-yl]-[1,2,4]triazolo[1,5-a]pyridin-2-yl]amino]pyrazol-1-yl]ethanone], for which the Ki was 0.6 nM in experiment [1] and 0.8 nM in experiment [2].
Take `CN1CCN(C(=O)Cn2cc(Nc3nc4c(N5CC6CCC(C5)N6C(=O)Cc5ccc(F)cc5)cccn4n3)cn2)CC1` [Example 66, 2-(4-fluorophenyl)-1-[3-[2-[[1-[2-(4-methylpiperazin-1-yl)-2-oxo-ethyl]pyrazol-4-yl]amino]-[1,2,4]triazolo[1,5-a]pyridin-8-yl]-3,8-diazabicyclo[3.2.1]octan-8-yl]ethanone]: the Ki stood at 0.7 nM in experiment [1] and 1.4 nM in experiment [2].
Taken in the same sequence, the figures for `CC(CC(=O)N1C2CCC1CN(c1cccn3nc(Nc4cnn(CC(=O)N5CCN(C)CC5)c4)nc13)C2)C(F)(F)F` (stereo not drawn) [Example 67, 4,4,4-trifluoro-3-methyl-1-[3-[2-[[1-[2-(4-methylpiperazin-1-yl)-2-oxo-ethyl]pyrazol-4-yl]amino]-[1,2,4]triazolo[1,5-a]pyridin-8-yl]-3,8-diazabicyclo[3.2.1]octan-8-yl]butan-1-one] were 0.8 nM and 1.4 nM.
Take `CN1CCN(C(=O)Cn2cc(Nc3nc4c(N5CC6CCC(C5)N6C(=O)c5cccc(CC#N)c5)cccn4n3)cn2)CC1` [Example 69, 2-[3-[3-[2-[[1-[2-(4-methylpiperazin-1-yl)-2-oxo-ethyl]pyrazol-4-yl]amino]-[1,2,4]triazolo[1,5-a]pyridin-8-yl]-3,8-diazabicyclo[3.2.1]octane-8-carbonyl]phenyl] acetonitrile]: the values for the Ki in experiment [1] and in experiment [2] were 2.3 nM and 9.3 nM, respectively.
